A melting point compilation (Tetko et al.; mined from patent text by program, amines drawn as free bases though some values may be those of a salt)

melting point | Structure (SMILES)
274 °C | Cc1nc(NC(=O)c2cnn3c(C(F)(F)F)cc(-c4ccc(Cl)cc4)nc23)sc1S(=O)(=O)NC(C)(C)CO
125 to 128 °C | O=C(C1CCN(S(=O)(=O)c2ccc(Cl)cc2)CC1)N1CCN(c2ccncn2)CC1
168 °C | CN(C)CC#Cc1cnc2c(c1)N(Cc1cc(Cl)ccc1Cl)CCN2
115 to 131 °C | CC(=O)Nc1cc(/C=C/C(=O)NCC(=O)N(C)c2ccc(Cl)c(COc3cccc4ccc(C)nc34)c2Cl)ccn1
117 to 118 °C | COC1CCC(O)C(CNC(C)=O)O1 (stereo unspecified)
75 to 76 °C | COC(=O)c1cc(NC(=O)c2cc(Br)ccc2Cl)ccc1-n1nc(C(F)(F)F)cc1C(F)(F)F
69 °C | Fc1ccc2sc(Cl)nc2c1
154 to 155 °C | O=C1Nc2ccc(Cl)cc2C(OCC2CC2)(C(F)(F)F)CN1C1CC1 (stereo unspecified)
228 to 233 °C | COC(=O)C1=C(C)NC2=C(C(=O)OC2C)C1c1ccccc1Cl (stereo unspecified)
155 °C | Cn1c([N+](=O)[O-])cnc1COc1ccc(S(C)(=O)=O)cc1
157 to 158 °C | Cc1nc2cccc3n(CCCNS(=O)(=O)CC(F)(F)F)c(=O)c1n23
110 to 112 °C | COc1ccc(Cl)cc1CC1CNC(=O)CN(S(=O)(=O)c2ccc(Cl)cc2)C1=O (stereo unspecified)
203 to 205 °C | CC(C)CN1C2=NCCN2C(=O)C(N=O)=C1N
143 to 145 °C | CSc1ccc(C(=N)Nc2ccc(C)cc2)cc1
53 to 54 °C | CC(C)CCCOc1nc(N)c([N+](=O)[O-])cc1Cl
78 to 80 °C | Clc1cccc(Oc2ncccc2C2=NC(c3ccccc3)CO2)c1 (stereo unspecified)
230 to 232 °C | Cc1cccc([N+](=O)[O-])c1C(=O)Nc1nnn[nH]1
189 to 190 °C | O=c1oc2cc(O)ccc2c2c1CCCCC2
256 °C | O=C(O)c1cc(=O)cc(C=Cc2ccc(O)cc2)o1
178 °C | COC(=O)/C=C/n1cnc2ccc(C3CC3)cc2c1=O
176 to 177 °C | COC(=O)c1cc2cc(Br)ccc2nc1Cl
140 to 142 °C | CCc1nc2csc(C(=S)OC)c2[nH]1
66 °C | CNc1cc2c(cc1OC)OCO2
78 to 85 °C | COC(=O)C(C)(C)N(OC(C)(C)C#N)C(C)(C)C
119 to 121 °C | O=[N+]([O-])c1ccccc1N1CCN(c2ccccc2)CCN1

melting point | Structure (SMILES)
> 300 °C | CSc1nn2c(=O)[nH]c(C)nc2c1S(=O)(=O)c1ccccc1
162 to 166 °C | COC(=O)c1cc(NC(=O)OC(C)(C)C)c(NC(=O)CC(=O)c2cccc(C#N)c2)cc1I
146 to 147 °C | COc1ccc(Cn2c(=O)c3c(c4ccccc42)OC(C)(C)[C@@H](Br)[C@@H]3O)cc1 (relative stereo)
53 °C | COC(=O)CC1=C(C)Cc2ccc(F)cc21
296 to 298 °C | N#CC(=Cc1cc(O)c(O)c([N+](=O)[O-])c1)C(N)=O
142 to 143 °C | COCOc1c(C)cc(-c2ccc(C(=O)NCCOc3ccc(CC(Oc4ccccc4)C(=O)O)cc3)cc2)cc1C (stereo unspecified)
225 to 226 °C | CCCCCCOc1ccc(NS(=O)(=O)c2ccc(N3CCNC3=O)cc2)cc1
98 to 100 °C | C=C=CS(=O)(=O)c1ncn(C(=O)N(CC)CC)n1
152 to 153 °C | O=C(O)CC1(c2ccccc2)Oc2ccccc2O1
126 to 128 °C | COC(=O)/C=C(C)/C=C/C(F)=C(C)/C=C/c1c(C)sc(C)c1C
134 to 136 °C | Cc1ccc2c(n1)N(CCCN1CCCC1)c1ccccc1N(C)C2=O
148 to 151 °C | O=C(O)CCC(=O)NCC(=O)N1c2ccccc2N(Cc2ccccc2)C(=O)[C@H]2CCC[C@H]21 (relative stereo)
116 to 118 °C | N#Cc1cc(Oc2ccc(Cl)cc2)ccc1N
291 to 292 °C | CN(C(=O)N(C)c1ccc(C(=O)O)cc1)c1ccc(C(=O)O)cc1
63 to 70 °C | COC(=O)c1ccc(OCCNC(=O)C2Cc3ccccc3N2S(=O)(=O)c2ccc(-c3cccc(C(F)(F)F)c3)cc2)cc1F (stereo unspecified)
180 °C | O=C1c2cccc(NC(=S)Nc3ncccc3Br)c2C2CCCCN12 (stereo unspecified)
98 to 100 °C | COc1ccc(C2(O)C(c3ccccc3Cl)SC3=NCCCCN32)cc1OC (stereo unspecified)
188 to 190 °C | Brc1ccc2c(c1)CN(Cc1c[nH]c3ccccc13)C2
144 to 146 °C | c1ccc(COc2ccc(N3c4ccccc4Sc4ccccc43)cc2)cc1
232 °C | CCCN(C1CCN(C)CC1)S(=O)(=O)c1ccc(Nc2nccc(Nc3ccc(F)cc3)n2)cc1
243 to 244 °C | Nc1nnc2c3c(c(N4CCCC4)nn12)CCCC3
100 to 103 °C | CCCCCCCCCCCCCCOc1ccc(CC(=O)Nc2ccccc2CBr)cc1
172 to 173 °C | O=C(NC(Cc1ccccc1)C(=O)O)OCc1ccc(C#Cc2ccccc2)cc1 (stereo unspecified)
111 to 112 °C | CCc1cnn(CC(=O)O)c1OCCCc1cn(-c2ccc(C(F)(F)F)cn2)nc1C(C)C
229 to 232 °C | NC(=O)N1C(=O)C(=C(OC(=O)C=CC(=O)O)c2cccs2)c2cc(F)c(Cl)cc21

melting point | Structure (SMILES)
185 to 194 °C | Cc1ccc(N=Nc2ccc(-c3ccc(-c4ccc(N=Nc5ccc(C)cn5)cc4OC(C)C)o3)c(OC(C)C)c2)nc1
> 300 °C | Cc1nn(C)c2nc(N)[nH]c(=O)c12
144 to 146 °C | CCC(C)(c1ccc(O)c(C)c1)c1ccc(O)c(C)c1
55 °C | C[C@H](CCC[C@@H](C)[C@H]1C(=O)C[C@H]2[C@@H]3CC=C4C[C@@H](O)CC[C@]4(C)[C@H]3CC[C@]12C)CN1C(=O)c2ccccc2C1=O
206 to 207 °C | COc1ccc2c(-c3ccccc3)nc(=NO)c(=O)n(C)c2c1
134 to 136 °C | NC(=O)N(O)Cc1cscc1Br
305 to 310 °C | Oc1cc(-c2cccc(C(F)(F)F)c2)nc2ccnn12
179 to 181 °C | COc1ccc2nc(-c3ccc(N)c(I)c3)sc2c1
51 to 53 °C | CN(c1ccc(CCNCC(O)COc2ccc(OCc3ccccc3)cc2)cc1)C1SC(=O)NC1=O (stereo unspecified)
115 to 117 °C | N#CC1CCc2c(OCCn3ccnc3)cccc21 (stereo unspecified)
93 °C | CCOC(=O)CSc1nc(C(C)(C)C)n[nH]1
319 °C | O=C(Nc1ccc2ccc(Cl)nc2n1)c1ccccn1
101 to 104 °C | O=Cc1ccc(Oc2ccc([N+](=O)[O-])cc2)cc1
112 °C | CCc1ccc(Nc2c(C(=O)NOCCO)ccc(F)c2F)c(F)c1
154 to 155 °C | CC(=O)N1CCC(OCCOc2ccc(C(N)=O)cc2)CC1
95 to 99 °C | COC(=O)CCCNC(=O)C(COS(C)(=O)=O)NS(=O)(=O)c1ccc(Cl)cc1 (racemic)
82 to 84 °C | CC(=O)C=Cc1ccc(Br)cc1
127 to 129 °C | CS(=O)(=O)NCc1ccc(-n2c(-c3cccnc3N)nc3cc(-c4cccnc4)cnc32)cc1
174 to 175 °C | Cc1cc(-c2ccccc2)c2c(n1)C(C(N)=S)CCC2 (stereo unspecified)
29.5 to 30.4 °C | CCCCC[C@H]1CC[C@H](c2nc(Cl)c(OC)c(Cl)n2)CC1
134 to 136 °C | COc1ccc(-c2cc(-c3ccccc3)[nH]c2C(=O)NCc2ccc(C(=O)NO)cc2)cc1OC
43 to 44 °C | CCCCCCCCCCCCCCCCCCc1ccc(S(=O)(=O)Cl)cc1
153 to 154 °C | CCNc1c(-c2ccccc2C)nc2c3cc(OC)ccc3ccn12
93 to 94 °C | O=CCCN1CCc2cc(Br)ccc2C1=O
74.7 °C | CS(=O)C=C1C(C)(C)CCC1(C)C (stereo unspecified)

melting point | Structure (SMILES)
110 to 112 °C | COC(=O)C1(Cc2c[nH]c3ccccc23)CC(N=[N+]=[N-])C(=O)O1 (stereo unspecified)
178 to 180 °C | CCc1cc(C(=O)c2ccccc2Cl)c(-n2c(C)nnc2CNC(=O)Nc2cccc(C(=O)O)c2)s1
181 to 183 °C | O=C(NNS(=O)(=O)c1ccccc1)c1cc2cc(Cl)ccc2o1
205 to 207 °C | NC(=O)c1ccccc1NC(=O)c1ccc(Cl)cc1
99 to 100 °C | CCOC(=O)NC=Cc1ccc(OCC(O)CNC(C)(C)C)cc1 (stereo unspecified)
125 to 126 °C | COc1cc(NC(=S)NCCN)cc(OC)c1
323 °C | CN(c1nc2cc(NC(=O)OC(C)(C)C)ccn2n1)C1CC1
99 to 100 °C | CCC=CC(c1cc(F)ccc1F)S(=O)(=O)c1ccc(Cl)cc1 (stereo unspecified)
250 °C | CN1C(=O)C(c2ccccc2)(C23CC4CC(CC(C4)C2)C3)N=C1N (stereo unspecified)
208 to 210 °C | NS(=O)(=O)c1ccc(-c2cnn(-c3ccc(F)c(Cl)c3)c(=O)c2-c2ccc(F)cc2)cc1
133 to 135 °C | CN1C(=O)COc2cc(S(=O)Cc3ccccc3)ccc21 (stereo unspecified)
120 to 122 °C | c1ccc2c(c1)oc1nnccc12
223 to 228 °C | O=C(Nc1ccc(C(F)(F)F)cc1)Nc1ccc2[nH]c(C(F)(F)F)nc2c1
218 °C | CC(C)(C)OC(=O)N1CCN(c2cccc(N)c2)CC1
> 300 °C | CCn1c(=O)c(=O)[nH]c2cccc(C)c21
135 to 136 °C | O=CCCCCC(c1cc(F)ccc1F)S(=O)(=O)c1ccc(Cl)cc1 (stereo unspecified)
198 to 199 °C | O=C(Cc1ccccc1C(=O)O)Nc1cccc(/C=C/c2csc(C3CCC3)n2)c1
107 to 110 °C | CC(C)CN(CC(O)C(Cc1ccccc1)NC(=O)C(CC(N)=O)NC(=O)c1ccc2ccccc2n1)C(=O)NC(C)(C)C (stereo unspecified)
115 to 116 °C | COC(NC(C)=O)(C(=O)OC(C)(C)C)C(Br)Br (stereo unspecified)
57 to 58 °C | O=C(O)c1c(OCCF)cccc1OCCF
102 to 104 °C | CCOC(=O)C(C)c1ccc(CC2CCCCC2=NO)cc1 (stereo unspecified)
88 to 89 °C | COc1cc(Nc2c(C#N)cnc3cc(/C=C/CCN4CCOCC4)ccc23)c(Cl)cc1Cl
56 to 59 °C | CCCCCCCCCCCC(=O)NC(C)c1c[nH]c(CCCCCCCCCCC)n1 (stereo unspecified)
155 °C | CC(=O)Cn1cnc2c1c(=O)n(CC1CC1)c(=O)n2C1CCCC1
284 to 287 °C | CCc1cccc(-n2cnc(-c3cnc4[nH]cc(C(=O)N[C@@H](C)C(C)(C)C)c4n3)c2)c1

Structure (SMILES) | melting point
CC(=O)C1C2=CCC3C(CCC4(C)C(O)C(O)CC34)C2(C)CCC1O (stereo unspecified) | 152 to 153 °C
